What follows are compounds tested against T1, Melanocortin receptor 4 (Homo sapiens, UniProt P32245) (assay: Agonist activity at human MC4R).
Format: functional

T1 sequence (P32245 whole entry): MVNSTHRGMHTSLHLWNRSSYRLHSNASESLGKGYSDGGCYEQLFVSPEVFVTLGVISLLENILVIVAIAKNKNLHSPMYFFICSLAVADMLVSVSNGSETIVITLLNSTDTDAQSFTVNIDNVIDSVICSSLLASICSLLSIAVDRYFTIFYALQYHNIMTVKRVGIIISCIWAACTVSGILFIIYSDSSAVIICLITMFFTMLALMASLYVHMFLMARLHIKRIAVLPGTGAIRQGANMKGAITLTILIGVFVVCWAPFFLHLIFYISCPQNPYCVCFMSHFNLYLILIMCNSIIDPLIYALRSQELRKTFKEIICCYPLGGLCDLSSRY

Row | SMILES | EC50 [nM]
1 | CNC(=O)[C@H](Cc1ccc2ccccc2c1)N1CCN(C(=O)[C@H](N)Cc2ccccc2)[C@@H](CCCN=C(N)N)C1=O | 1.7
2 | CNC(=O)[C@H](Cc1ccc2ccccc2c1)N1CCN(C(=O)[C@H](N)Cc2ccc(F)cc2)[C@@H](CCCNC(N)=O)C1=O | 12
3 | CNC(=O)[C@H](Cc1ccc2ccccc2c1)N1CCN(C(=O)[C@@H](Cc2ccccc2)NC(=O)[C@H](Cc2ccc(O)cc2)NC(C)=O)[C@@H](CCCN=C(N)N)C1=O | 0.2
4 | CNC(=O)[C@H](Cc1ccc2ccccc2c1)N1CCN(C(=O)[C@@H](Cc2ccc(F)cc2)NC(=O)C2Cc3ccccc3CN2)[C@@H](CCCN=C(N)N)C1=O (some centres not stated) | 1.6
5 | CNC(=O)[C@H](Cc1ccc2ccccc2c1)N1CCN(C(=O)[C@@H](Cc2ccc(F)cc2)NC(=O)[C@H](Cc2cnc[nH]2)NC(C)=O)[C@@H](CCCN=C(N)N)C1=O | 2
6 | CNC(=O)[C@H](Cc1ccc2ccccc2c1)N1CCN(C(=O)CCc2ccc(F)cc2)[C@@H](CCCN=C(N)N)C1=O | 9
7 | CNC(=O)[C@H](Cc1ccc2ccccc2c1)N1CCN(C(=O)[C@@H](Cc2ccccc2)NC(=O)[C@H](Cc2c[nH]cn2)NC(C)=O)[C@@H](CCCN=C(N)N)C1=O | 0.3

Each compound was assayed against T1, Melanocortin receptor 4 (assay: Binding affinity to human MC4R).

Row | SMILES | Ki [nM]
8 | CNC(=O)[C@H](Cc1ccc2ccccc2c1)N1CCN(C(=O)[C@H](N)Cc2ccccc2)[C@@H](CCCN=C(N)N)C1=O | 5.7
9 | CNC(=O)[C@H](Cc1ccc2ccccc2c1)N1CCN(C(=O)[C@H](N)Cc2ccc(F)cc2)[C@@H](CCCNC(N)=O)C1=O | 261
10 | CNC(=O)[C@H](Cc1ccc2ccccc2c1)N1CCN(C(=O)[C@@H](Cc2ccccc2)NC(=O)[C@H](Cc2ccc(O)cc2)NC(C)=O)[C@@H](CCCN=C(N)N)C1=O | 0.6
11 | CNC(=O)[C@H](Cc1ccc2ccccc2c1)N1CCN(C(=O)[C@@H](Cc2ccc(F)cc2)NC(=O)C2Cc3ccccc3CN2)[C@@H](CCCN=C(N)N)C1=O (some centres not stated) | 6
12 | CNC(=O)[C@H](Cc1ccc2ccccc2c1)N1CCN(C(=O)[C@@H](Cc2ccc(F)cc2)NC(=O)[C@H](Cc2cnc[nH]2)NC(C)=O)[C@@H](CCCN=C(N)N)C1=O | 5
13 | CNC(=O)[C@H](Cc1ccc2ccccc2c1)N1CCN(C(=O)CCc2ccc(F)cc2)[C@@H](CCCN=C(N)N)C1=O | 5.3
14 | CNC(=O)[C@H](Cc1ccc2ccccc2c1)N1CCN(C(=O)[C@@H](Cc2ccccc2)NC(=O)[C@H](Cc2c[nH]cn2)NC(C)=O)[C@@H](CCCN=C(N)N)C1=O | 0.8

Each compound was assayed against T2, Melanocyte-stimulating hormone receptor (Homo sapiens, UniProt Q01726) (assay: Binding affinity to human MC1R).
T2 sequence (Q01726 whole entry): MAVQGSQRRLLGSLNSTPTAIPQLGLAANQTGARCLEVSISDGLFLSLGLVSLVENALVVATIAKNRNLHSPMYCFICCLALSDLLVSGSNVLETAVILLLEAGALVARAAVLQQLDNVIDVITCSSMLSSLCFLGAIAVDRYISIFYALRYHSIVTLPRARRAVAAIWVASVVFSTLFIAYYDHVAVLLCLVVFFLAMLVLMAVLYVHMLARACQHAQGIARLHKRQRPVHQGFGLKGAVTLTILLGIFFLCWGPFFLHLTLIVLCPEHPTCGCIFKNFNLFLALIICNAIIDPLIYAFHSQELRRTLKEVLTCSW

Row | SMILES | Ki [nM]
15 | CNC(=O)[C@H](Cc1ccc2ccccc2c1)N1CCN(C(=O)[C@H](N)Cc2ccccc2)[C@@H](CCCN=C(N)N)C1=O | 659
16 | CNC(=O)[C@H](Cc1ccc2ccccc2c1)N1CCN(C(=O)[C@H](N)Cc2ccc(F)cc2)[C@@H](CCCNC(N)=O)C1=O | 2130
17 | CNC(=O)[C@H](Cc1ccc2ccccc2c1)N1CCN(C(=O)[C@@H](Cc2ccccc2)NC(=O)[C@H](Cc2ccc(O)cc2)NC(C)=O)[C@@H](CCCN=C(N)N)C1=O | 1
18 | CNC(=O)[C@H](Cc1ccc2ccccc2c1)N1CCN(C(=O)[C@@H](Cc2ccc(F)cc2)NC(=O)C2Cc3ccccc3CN2)[C@@H](CCCN=C(N)N)C1=O (some centres not stated) | 313
19 | CNC(=O)[C@H](Cc1ccc2ccccc2c1)N1CCN(C(=O)[C@@H](Cc2ccc(F)cc2)NC(=O)[C@H](Cc2cnc[nH]2)NC(C)=O)[C@@H](CCCN=C(N)N)C1=O | 2
20 | CNC(=O)[C@H](Cc1ccc2ccccc2c1)N1CCN(C(=O)CCc2ccc(F)cc2)[C@@H](CCCN=C(N)N)C1=O | 958
21 | CNC(=O)[C@H](Cc1ccc2ccccc2c1)N1CCN(C(=O)[C@@H](Cc2ccccc2)NC(=O)[C@H](Cc2c[nH]cn2)NC(C)=O)[C@@H](CCCN=C(N)N)C1=O | 0.4

Each compound was assayed against Melanocortin receptor (M1 and M4) (Homo sapiens) (UniProt P32245+Q01726) (assay: Selectivity for human MC4R over MC1R).
Format: protein assay

Row | SMILES | Selectivity ratio
22 | CNC(=O)[C@H](Cc1ccc2ccccc2c1)N1CCN(C(=O)[C@H](N)Cc2ccccc2)[C@@H](CCCN=C(N)N)C1=O | 116

The compounds below were run against T2, Melanocyte-stimulating hormone receptor (assay: Agonist activity at human MC1R).
Format: functional

Row | SMILES | EC50 [nM]
23 | CNC(=O)[C@H](Cc1ccc2ccccc2c1)N1CCN(C(=O)[C@H](N)Cc2ccccc2)[C@@H](CCCN=C(N)N)C1=O | 526
24 | CNC(=O)[C@H](Cc1ccc2ccccc2c1)N1CCN(C(=O)[C@@H](Cc2ccccc2)NC(=O)[C@H](Cc2ccc(O)cc2)NC(C)=O)[C@@H](CCCN=C(N)N)C1=O | 1.7
25 | CNC(=O)[C@H](Cc1ccc2ccccc2c1)N1CCN(C(=O)[C@@H](Cc2ccc(F)cc2)NC(=O)C2Cc3ccccc3CN2)[C@@H](CCCN=C(N)N)C1=O (some centres not stated) | 104
26 | CNC(=O)[C@H](Cc1ccc2ccccc2c1)N1CCN(C(=O)[C@@H](Cc2ccc(F)cc2)NC(=O)[C@H](Cc2cnc[nH]2)NC(C)=O)[C@@H](CCCN=C(N)N)C1=O | 1.7
27 | CNC(=O)[C@H](Cc1ccc2ccccc2c1)N1CCN(C(=O)CCc2ccc(F)cc2)[C@@H](CCCN=C(N)N)C1=O | 1390
28 | CNC(=O)[C@H](Cc1ccc2ccccc2c1)N1CCN(C(=O)[C@@H](Cc2ccccc2)NC(=O)[C@H](Cc2c[nH]cn2)NC(C)=O)[C@@H](CCCN=C(N)N)C1=O | 0.07

Each compound was assayed against Melanocortin receptor (M3 and M4) (Homo sapiens) (UniProt P32245+P41968) (assay: Selectivity for human MC4R over MC3R).
Format: protein assay

Row | SMILES | Selectivity ratio
29 | CNC(=O)[C@H](Cc1ccc2ccccc2c1)N1CCN(C(=O)[C@H](N)Cc2ccccc2)[C@@H](CCCN=C(N)N)C1=O | 42

Each compound was assayed against T3, Melanocortin receptor 3 (Homo sapiens, UniProt P41968) (assay: Agonist activity at human MC3R).
Format: functional

T3 sequence (P41968 whole entry): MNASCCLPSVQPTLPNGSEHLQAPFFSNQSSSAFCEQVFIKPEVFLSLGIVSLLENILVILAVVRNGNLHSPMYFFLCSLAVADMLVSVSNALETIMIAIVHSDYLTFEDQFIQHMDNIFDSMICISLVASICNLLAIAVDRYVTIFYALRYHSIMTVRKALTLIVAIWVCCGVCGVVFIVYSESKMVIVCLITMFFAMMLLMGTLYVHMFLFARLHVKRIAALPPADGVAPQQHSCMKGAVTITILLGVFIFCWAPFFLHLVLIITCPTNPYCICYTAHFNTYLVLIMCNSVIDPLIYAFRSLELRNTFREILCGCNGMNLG

Row | SMILES | EC50 [nM]
30 | CNC(=O)[C@H](Cc1ccc2ccccc2c1)N1CCN(C(=O)[C@H](N)Cc2ccccc2)[C@@H](CCCN=C(N)N)C1=O | 41
31 | CNC(=O)[C@H](Cc1ccc2ccccc2c1)N1CCN(C(=O)[C@@H](Cc2ccccc2)NC(=O)[C@H](Cc2ccc(O)cc2)NC(C)=O)[C@@H](CCCN=C(N)N)C1=O | 1
32 | CNC(=O)[C@H](Cc1ccc2ccccc2c1)N1CCN(C(=O)[C@@H](Cc2ccc(F)cc2)NC(=O)C2Cc3ccccc3CN2)[C@@H](CCCN=C(N)N)C1=O (some centres not stated) | 163
33 | CNC(=O)[C@H](Cc1ccc2ccccc2c1)N1CCN(C(=O)[C@@H](Cc2ccc(F)cc2)NC(=O)[C@H](Cc2cnc[nH]2)NC(C)=O)[C@@H](CCCN=C(N)N)C1=O | 6
34 | CNC(=O)[C@H](Cc1ccc2ccccc2c1)N1CCN(C(=O)CCc2ccc(F)cc2)[C@@H](CCCN=C(N)N)C1=O | 142
35 | CNC(=O)[C@H](Cc1ccc2ccccc2c1)N1CCN(C(=O)[C@@H](Cc2ccccc2)NC(=O)[C@H](Cc2c[nH]cn2)NC(C)=O)[C@@H](CCCN=C(N)N)C1=O | 0.4

Each compound was assayed against T3, Melanocortin receptor 3 (assay: Binding affinity to human MC3R).

Row | SMILES | Ki [nM]
36 | CNC(=O)[C@H](Cc1ccc2ccccc2c1)N1CCN(C(=O)[C@H](N)Cc2ccccc2)[C@@H](CCCN=C(N)N)C1=O | 239
37 | CNC(=O)[C@H](Cc1ccc2ccccc2c1)N1CCN(C(=O)[C@H](N)Cc2ccc(F)cc2)[C@@H](CCCNC(N)=O)C1=O | 461
38 | CNC(=O)[C@H](Cc1ccc2ccccc2c1)N1CCN(C(=O)[C@@H](Cc2ccccc2)NC(=O)[C@H](Cc2ccc(O)cc2)NC(C)=O)[C@@H](CCCN=C(N)N)C1=O | 1
39 | CNC(=O)[C@H](Cc1ccc2ccccc2c1)N1CCN(C(=O)[C@@H](Cc2ccc(F)cc2)NC(=O)C2Cc3ccccc3CN2)[C@@H](CCCN=C(N)N)C1=O (some centres not stated) | 352
40 | CNC(=O)[C@H](Cc1ccc2ccccc2c1)N1CCN(C(=O)[C@@H](Cc2ccc(F)cc2)NC(=O)[C@H](Cc2cnc[nH]2)NC(C)=O)[C@@H](CCCN=C(N)N)C1=O | 35
41 | CNC(=O)[C@H](Cc1ccc2ccccc2c1)N1CCN(C(=O)CCc2ccc(F)cc2)[C@@H](CCCN=C(N)N)C1=O | 206
42 | CNC(=O)[C@H](Cc1ccc2ccccc2c1)N1CCN(C(=O)[C@@H](Cc2ccccc2)NC(=O)[C@H](Cc2c[nH]cn2)NC(C)=O)[C@@H](CCCN=C(N)N)C1=O | 1
